Reference: ChEMBL document CHEMBL1124176, “1-Methyl-4-phenyl-1,2,3,6-tetrahydropyridine analogues. Inactivation of monoamine oxidase by conformationally rigid analogues of N,N-dimethylcinnamylamine” (J Med Chem, 1988)
pKi: −log10 of the molar value.

Legend:
[1] = Cytotoxicity measured as % loss of cells after 120 min; assay type: cell-based; details: rat, 2 h
[2] = Cytotoxicity measured as % loss of cells after 60 min; assay type: cell-based; details: rat, 1 h
[3] = Cytotoxicity measured as % loss of cells after 90 min; assay type: cell-based; details: rat
[4] = target: Amine oxidase [flavin-containing] B (Bos taurus) (UniProt P56560)
[5] = target: Amine oxidase [flavin-containing] B (Bos taurus) (UniProt P56560); assay: Inactivation of monoamine oxidase measured as kinetic constant, KI at 0.8-4 conc range
[6] = target: Amine oxidase [flavin-containing] B (Bos taurus) (UniProt P56560); assay: Inactivation of monoamine oxidase measured as kinetic constant, Kinact at 0.8-4 conc range

Sequence of Amine oxidase [flavin-containing] B (Bos taurus) (P56560 whole entry, looked up): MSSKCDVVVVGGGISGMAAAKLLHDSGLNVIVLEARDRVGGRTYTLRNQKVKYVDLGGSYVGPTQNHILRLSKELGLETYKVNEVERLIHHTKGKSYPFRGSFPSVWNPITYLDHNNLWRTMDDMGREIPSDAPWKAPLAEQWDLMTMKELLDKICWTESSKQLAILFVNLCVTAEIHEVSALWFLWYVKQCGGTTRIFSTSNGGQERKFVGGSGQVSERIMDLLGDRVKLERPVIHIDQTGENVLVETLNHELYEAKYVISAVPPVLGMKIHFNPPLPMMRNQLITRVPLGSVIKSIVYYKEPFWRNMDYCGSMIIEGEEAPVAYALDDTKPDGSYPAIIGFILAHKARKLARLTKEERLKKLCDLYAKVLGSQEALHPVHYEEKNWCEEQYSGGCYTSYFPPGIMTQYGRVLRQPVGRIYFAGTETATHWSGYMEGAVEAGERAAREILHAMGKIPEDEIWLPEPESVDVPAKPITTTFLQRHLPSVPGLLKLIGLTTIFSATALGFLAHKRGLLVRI

| Structure (SMILES) | Loss of cells [1] | Loss of cells [2] | Loss of cells [3] | pKi [4] | pKi [5] | kinact [6] |
| --- | --- | --- | --- | --- | --- | --- |
| CN1CC=C(c2ccccc2)CC1 | 81% | 12% | 58% | – | – | – |
| CN(C)C/C=C/c1ccccc1 | – | – | – | 2.87 | 2.88 | 0.00356 s⁻¹ |
| C/C=C(\C)c1ccccc1 | – | – | – | 2.72 | – | – |
| C#CCN(C)Cc1ccccc1.CN1CC=C(c2ccccc2)CC1 | 5% | 6% | 11% | – | – | – |
| C#CCN(C)Cc1ccccc1.NC1C=C(c2ccccc2)CCC1 (stereo not given) | 69% | 24% | 51% | – | – | – |
| CN(C)C1C=C(c2ccccc2)CCC1 (stereo not given) | – | 100% | – | 2.98 | – | – |
| C#CCN(C)Cc1ccccc1.CN(C)C1C=C(c2ccccc2)CCC1 (stereo not given) | – | 100% | – | – | – | – |
| NC1C=C(c2ccccc2)CCC1 (stereo not given) | 60% | 28% | 35% | 3.29 | – | – |
